Experimental data published in patent US11540987B2, “Composition with stabilized taste and odor (II)” (SYMRISE AG, priority 2015, dated 2023).

Assay: ABTS-assay, inhibition of radical formation
Assay type: biochemical
Details: for IC50: absorption at 734 nm, mean value from at least 2 independent tests
Protocol: By means of the ABTS-assay the anti-oxidative capacity of 4-hydroxyacetophenone and alpha-tocopherol was compared. 2,2′-azino bis-(3-ethylbenzothiazoline 6-sulfonic acid) (ABTS) was transformed by potassium persulfate into the blue-green radical cation ABTS•^+. Through the addition of 4-hydroxyacetophenone and alpha-tocopherol the radical cations were reduced and discoloration was observed, which was determined photometrically by Absorption at 734 nm. The inhibition of the radical formation of the test substance is calculated by the following formula:
[formula] Wherein the abbreviations have the following meanings: • Atest substance: Absorption of the wells with test substance including 4-hydroxyacetophenone and alpha-tocopherol • Acontrol: Absorption of the wells without test substance
From the inhibition of the radical formation [%] in a series of dilutions of tested samples the IC50 was calculated. This is the concentration at which the radical formation is inhibited by 50%.

| IC50 [µM] | fold higher IC50 value than alpha-tocopherol [fold] | Compound | antioxidant activity compared with alpha-tocopherol (in words) |
| --- | --- | --- | --- |
| 26.8 |  | Cc1c(C)c2c(c(C)c1O)CC[C@@](C)(CCC[C@H](C)CCC[C@H](C)CCCC(C)C)O2 [alpha-tocopherol, reference compound] |  |
| 262 | 10 | CC(=O)c1ccc(O)cc1 [4-hydroxyacetophenone] | much weaker antioxidant activity |
